Here are results for 19 compounds from US20240092790A1, “DIHYDROFUROPYRIDINE DERIVATIVES AS RHO- KINASE INHIBITORS” (CHIESI FARMACEUTICI S.P.A., priority 2020, published 2024).

The Ki is the dissociation constant of the complex between target and ligand, obtained from inhibition or displacement.

Holding throughout (format): biochemical
One assay addresses PKA (Homo sapiens, UniProt P17612). In words: In vitro inhibitory activity assay for PKA (ADP-Glo), reported as selectivity ratio vs ROCK2. Conditions: Ki value for PKA divided by Ki value of ROCK2. As to the method: In Vitro Inhibitory Activity Assay Description for PKA
The effectiveness of compounds of the present invention to inhibit PKA activity can be determined in a 10 μl assay containing 40 mM Tris pH7.5, 20 mM MgCl2 0.1 mg/ml BSA, 50 μM DTT and 260 μM peptide substrate (kemptide) using an ADP-Glo kit (Promega). Compounds were dissolved in DMSO such that the final concentration of DMSO was 1% in the assay. All reactions/incubations are performed at 25° C. Compound and PKA enzyme (6 μl) were mixed and incubated for 30 mins. Reactions were initiated by addition of ATP (4 μl) such that the final concentration of ATP in the assay was 10 μM. After a 30 minute incubation 10p of ADP-Glo Reagent was added and after a further 1 hour incubation 20 μl of Kinase Detection Buffer was added and the mixture incubated for a further 45 minutes. The luminescent signal was measured on a luminometer. […] Compounds were tested in dose-response format and the inhibition of kinase activity was calculated at each concentration of compound. To determine the IC50 (concentration of compound required to inhibit 50% of the enzyme activity) data were fit to a plot of % inhibition vs Log10 compound concentration using a sigmoidal fit with a variable slope and fixing the maximum to 100% and the minimum to 0%. To determine the Ki values the Cheng-Prusoff equation was utilized (Ki=IC50/(1+[S]/Km).
In vitro inhibitory activities for PKA were reported as selectivity ratio vs. ROCK-2.

The target in the next assay is ROCK2 (Homo sapiens, UniProt O75116). As to the kind of experiment: In vitro inhibitory activity assay ROCK2 (ADP-Glo). Conditions: ATP 200 μM, Cheng-Prusoff; read-out: ROCK2 (Ki, range of activity). The method, then: (§1) In Vitro Inhibitory Activity Assay Description ROCK1 and ROCK2
Chain of ROCK2 (O75116 whole entry): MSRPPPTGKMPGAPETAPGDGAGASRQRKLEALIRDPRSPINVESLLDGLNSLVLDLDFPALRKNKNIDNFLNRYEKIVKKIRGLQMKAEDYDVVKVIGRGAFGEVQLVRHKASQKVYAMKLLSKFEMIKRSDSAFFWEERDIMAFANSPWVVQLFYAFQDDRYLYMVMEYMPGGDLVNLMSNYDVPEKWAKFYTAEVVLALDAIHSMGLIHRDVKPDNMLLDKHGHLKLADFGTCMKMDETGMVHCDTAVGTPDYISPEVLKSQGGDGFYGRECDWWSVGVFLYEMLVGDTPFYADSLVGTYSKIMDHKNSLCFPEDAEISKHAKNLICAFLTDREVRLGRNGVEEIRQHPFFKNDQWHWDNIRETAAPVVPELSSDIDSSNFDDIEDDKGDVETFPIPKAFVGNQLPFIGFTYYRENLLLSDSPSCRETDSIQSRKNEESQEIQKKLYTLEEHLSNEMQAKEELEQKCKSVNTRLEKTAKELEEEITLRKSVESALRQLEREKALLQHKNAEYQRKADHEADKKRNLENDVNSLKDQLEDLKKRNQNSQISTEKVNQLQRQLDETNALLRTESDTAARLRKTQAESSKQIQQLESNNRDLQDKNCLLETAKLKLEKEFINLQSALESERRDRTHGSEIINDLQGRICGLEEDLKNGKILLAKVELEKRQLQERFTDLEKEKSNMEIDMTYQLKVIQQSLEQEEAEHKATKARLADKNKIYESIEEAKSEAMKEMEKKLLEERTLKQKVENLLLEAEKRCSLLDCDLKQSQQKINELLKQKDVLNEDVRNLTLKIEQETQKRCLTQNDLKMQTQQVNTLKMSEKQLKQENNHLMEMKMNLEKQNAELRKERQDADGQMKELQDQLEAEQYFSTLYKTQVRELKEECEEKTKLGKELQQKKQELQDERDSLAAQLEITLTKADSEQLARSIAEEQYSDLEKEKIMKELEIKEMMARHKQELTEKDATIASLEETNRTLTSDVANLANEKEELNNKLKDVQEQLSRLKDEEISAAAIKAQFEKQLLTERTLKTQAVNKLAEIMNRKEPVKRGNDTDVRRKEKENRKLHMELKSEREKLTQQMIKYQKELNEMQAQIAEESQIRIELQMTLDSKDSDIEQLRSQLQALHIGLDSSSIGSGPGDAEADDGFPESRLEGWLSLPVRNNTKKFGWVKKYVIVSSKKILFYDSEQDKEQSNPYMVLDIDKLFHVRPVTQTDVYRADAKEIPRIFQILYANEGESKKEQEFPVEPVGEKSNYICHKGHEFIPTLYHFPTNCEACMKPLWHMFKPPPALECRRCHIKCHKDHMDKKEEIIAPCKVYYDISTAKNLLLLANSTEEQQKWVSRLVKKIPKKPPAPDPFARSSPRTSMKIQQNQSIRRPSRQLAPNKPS
(§2) The effectiveness of compounds of the present invention to inhibit Rho kinase activity can be determined in a 10 μl assay containing 40 mM Tris pH7.5, 20 mM MgCl2 0.1 mg/mL BSA, 50 μM DTT and 2.5 μM peptide substrate (Myelin Basic Protein) using an ADP-Glo kit (Promega). Compounds were dissolved in DMSO such that the final concentration of DMSO was 1% in the assay. All reactions/incubations are performed at 25° C. Compound (2 ul) and either Rho kinase 1 or 2 (4 μl) were mixed and incubated for 30 mins. Reactions were initiated by addition of ATP (4 μl) such that the final concentration of ATP in the assay was 200 μM. After a 1 hour incubation 10 μl of ADP-Glo Reagent was added and after a further 1 hour incubation 20 ul of Kinase Detection Buffer was added and the mixture incubated for a further 45 minutes. The luminescent signal was measured on a luminometer. […] Compounds were tested in dose-response format and the inhibition of kinase activity was calculated at each concentration of compound. To determine the IC50 (concentration of compound required to inhibit 50% of the enzyme activity) data were fit to a plot of % inhibition vs Log 10 compound concentration using a sigmoidal fit with a variable slope and fixing the maximum to 100% and the minimum to 0%. To determine the Ki values the Cheng-Prusoff equation was utilized (Ki=IC50/(1+[S]/Km).
For orientation: In ADP-Glo the light output rises with the ADP produced.

Another assay has as its target ROCK1 (Homo sapiens, UniProt Q13464). As to the kind of experiment: In vitro inhibitory activity assay ROCK1 (ADP-Glo). Conditions: ATP 200 μM, Cheng-Prusoff; read-out: ROCK 1 (Ki, range of activity). The method, then:
as §1, §2

Chain of ROCK1 (Q13464 whole entry): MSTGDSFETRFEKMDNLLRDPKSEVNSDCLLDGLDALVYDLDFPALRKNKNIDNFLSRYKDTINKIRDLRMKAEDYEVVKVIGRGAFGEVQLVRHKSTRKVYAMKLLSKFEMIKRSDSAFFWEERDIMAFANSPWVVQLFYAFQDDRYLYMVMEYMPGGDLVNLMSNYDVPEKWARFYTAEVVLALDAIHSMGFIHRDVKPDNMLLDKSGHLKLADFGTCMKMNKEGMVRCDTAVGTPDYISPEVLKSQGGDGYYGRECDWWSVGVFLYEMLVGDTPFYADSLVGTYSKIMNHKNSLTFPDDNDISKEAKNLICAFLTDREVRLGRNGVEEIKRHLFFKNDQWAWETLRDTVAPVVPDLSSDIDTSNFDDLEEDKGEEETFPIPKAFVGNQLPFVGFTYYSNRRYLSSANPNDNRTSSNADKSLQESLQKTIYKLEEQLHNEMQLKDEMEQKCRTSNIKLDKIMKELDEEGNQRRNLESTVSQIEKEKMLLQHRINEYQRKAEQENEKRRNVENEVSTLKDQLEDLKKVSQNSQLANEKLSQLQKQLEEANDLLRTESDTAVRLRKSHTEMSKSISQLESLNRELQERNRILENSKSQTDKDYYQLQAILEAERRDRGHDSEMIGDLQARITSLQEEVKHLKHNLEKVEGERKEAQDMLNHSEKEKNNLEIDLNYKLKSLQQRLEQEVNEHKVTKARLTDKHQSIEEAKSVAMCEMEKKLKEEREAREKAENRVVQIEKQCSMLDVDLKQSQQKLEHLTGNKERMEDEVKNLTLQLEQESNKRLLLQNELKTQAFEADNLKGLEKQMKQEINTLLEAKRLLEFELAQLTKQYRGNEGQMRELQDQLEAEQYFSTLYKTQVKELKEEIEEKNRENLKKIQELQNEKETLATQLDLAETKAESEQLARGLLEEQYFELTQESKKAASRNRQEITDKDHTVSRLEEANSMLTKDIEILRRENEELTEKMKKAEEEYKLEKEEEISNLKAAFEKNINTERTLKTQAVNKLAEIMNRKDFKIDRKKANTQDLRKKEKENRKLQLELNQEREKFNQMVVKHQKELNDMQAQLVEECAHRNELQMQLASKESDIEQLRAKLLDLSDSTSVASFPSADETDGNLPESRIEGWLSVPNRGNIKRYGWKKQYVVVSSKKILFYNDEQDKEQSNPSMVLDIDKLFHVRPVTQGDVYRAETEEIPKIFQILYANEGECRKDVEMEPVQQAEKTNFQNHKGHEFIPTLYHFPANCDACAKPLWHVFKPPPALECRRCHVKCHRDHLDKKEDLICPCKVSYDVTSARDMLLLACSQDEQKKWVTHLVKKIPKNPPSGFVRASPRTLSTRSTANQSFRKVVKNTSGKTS

Turning to `CC1(CNC(=O)c2cccc(CNc3ncc(-c4ccnc(N)n4)c4c3CCO4)c2)CC1` [Example 30, 3-(((7-(2-Aminopyrimidin-4-yl)-2,3-dihydrofuro[3,2-c]pyridin-4-yl)amino)methyl)-N-((1-methylcyclopropyl)methyl)benzamide], the “Ratio (PKA/ROCK2)” value at PKA is recorded as “** (5≤ratio<10)”. The inhibition constant (Ki) on ROCK2 and at ROCK1 was at most 3 nM throughout.
`CC(C)(F)CNC(=O)c1cccc(CNc2ncc(-c3ccnc(N)n3)c3c2CCO3)c1` [Example 31, 3-(((7-(2-Aminopyrimidin-4-yl)-2,3-dihydrofuro[3,2-c]pyridin-4-yl)amino)methyl)-N-(2-fluoro-2-methylpropyl)benzamide]: at PKA, the “Ratio (PKA/ROCK2)” value is recorded as “*** (ratio≥10)”. The Ki on ROCK2 and on ROCK1 was at most 3 nM throughout.
On to `COC(C)(C)CCNC(=O)c1cccc(CNc2ncc(-c3ccnc(N)n3)c3c2CCO3)c1` [Example 36, 3-(((7-(2-Aminopyrimidin-4-yl)-2,3-dihydrofuro[3,2-c]pyridin-4-yl)amino)methyl)-N-(3-methoxy-3-methylbutyl)benzamide], for which the “Ratio (PKA/ROCK2)” value on PKA was “*** (ratio≥10)”. Moreover, the inhibitory constant (Ki) on ROCK2 and on ROCK1 was at most 3 nM throughout.
As to `Nc1nccc(-c2cnc(NCc3cccc(C(=O)N[C@@H]4C[C@@H]4F)c3)c3c2OCC3)n1` [Example 37, 3-(((7-(2-Aminopyrimidin-4-yl)-2,3-dihydrofuro[3,2-c]pyridin-4-yl)amino)methyl)-N-((1R,2S)-2-fluorocyclopropyl)benzamide], the “Ratio (PKA/ROCK2)” value on PKA is on record as “*** (ratio≥10)”. In addition, the Ki at ROCK2 and on ROCK1 was at most 3 nM throughout.
Turning to `Nc1nccc(-c2cnc(NCc3cccc(C(=O)NCC4CCO4)c3)c3c2OCC3)n1` (stereo not drawn) [Example 38, 3-(((7-(2-Aminopyrimidin-4-yl)-2,3-dihydrofuro[3,2-c]pyridin-4-yl)amino)methyl)-N-(oxetan-2-ylmethyl)benzamide], the “Ratio (PKA/ROCK2)” value at PKA is “*** (ratio≥10)”. For the same compound, the Ki on ROCK2 and at ROCK1 was at most 3 nM throughout.
For the compound `CO[C@H]1C[C@H](CNC(=O)c2cccc(CNc3ncc(-c4ccnc(N)n4)c4c3CCO4)c2)C1` [Example 39, 3-(((7-(2-Aminopyrimidin-4-yl)-2,3-dihydrofuro[3,2-c]pyridin-4-yl)amino)methyl)-N-(((1R,3R)-3-methoxycyclobutyl)methyl)benzamide], on PKA, the “Ratio (PKA/ROCK2)” value is given as “*** (ratio≥10)”. Besides, the inhibition constant (Ki) at ROCK2 and at ROCK1 was at most 3 nM throughout.
Turning to `CCCNC(=O)c1cccc(CNc2ncc(-c3ccnc(N)n3)c3c2CCO3)c1` [Example 40, 3-(((7-(2-Aminopyrimidin-4-yl)-2,3-dihydrofuro[3,2-c]pyridin-4-yl)amino)methyl)-N-propylbenzamide], on PKA, the “Ratio (PKA/ROCK2)” value is on record as “*** (ratio≥10)”. Besides, the Ki on ROCK2 and on ROCK1 was at most 3 nM in each case.
In the case of `CO[C@H]1C[C@H](NC(=O)c2cccc(CNc3ncc(-c4ccnc(N)n4)c4c3CCO4)c2)C1` [Example 41, 3-(((7-(2-Aminopyrimidin-4-yl)-2,3-dihydrofuro[3,2-c]pyridin-4-yl)amino)methyl)-N-((1R,3R)-3-methoxycyclobutyl)benzamide], the “Ratio (PKA/ROCK2)” value at PKA is given as “*** (ratio≥10)”. The inhibition constant (Ki) on ROCK2 and at ROCK1 was at most 3 nM each time.
`Nc1nccc(-c2cnc(NCc3cccc(C(=O)NC[C@H]4CCCO4)c3)c3c2OCC3)n1` [Example 42, (R)-3-(((7-(2-Aminopyrimidin-4-yl)-2,3-dihydrofuro[3,2-c]pyridin-4-yl)amino)methyl)-N-((tetrahydrofuran-2-yl)methyl)benzamide]: the “Ratio (PKA/ROCK2)” value on PKA is “*** (ratio≥10)”. The Ki on ROCK2 and at ROCK1 was at most 3 nM each time.
As to `Nc1nccc(-c2cnc(NCc3cccc(C(=O)NC[C@@H]4CCCO4)c3)c3c2OCC3)n1` [Example 43, (S)-3-(((7-(2-Aminopyrimidin-4-yl)-2,3-dihydrofuro[3,2-c]pyridin-4-yl)amino)methyl)-N-((tetrahydrofuran-2-yl)methyl)benzamide], the “Ratio (PKA/ROCK2)” value at PKA was “*** (ratio≥10)”. Besides, the Ki at ROCK2 and at ROCK1 was at most 3 nM throughout.
On to `CC(F)(F)CNC(=O)c1cccc(CNc2ncc(-c3ccnc(N)n3)c3c2CCO3)c1` [Example 44, 3-(((7-(2-Aminopyrimidin-4-yl)-2,3-dihydrofuro[3,2-c]pyridin-4-yl)amino)methyl)-N-(2,2-difluoropropyl)benzamide], for which, on PKA, the “Ratio (PKA/ROCK2)” value was “*** (ratio≥10)”. The Ki on ROCK2 and on ROCK1 was at most 3 nM throughout.
Take `Nc1nccc(-c2cnc(NCc3cccc(C(=O)N[C@H]4C[C@H]4F)c3)c3c2OCC3)n1` [Example 47, 3-(((7-(2-Aminopyrimidin-4-yl)-2,3-dihydrofuro[3,2-c]pyridin-4-yl)amino)methyl)-N-((1S,2R)-2-fluorocyclopropyl)benzamide]: the “Ratio (PKA/ROCK2)” value at PKA was “*** (ratio≥10)”. For the same compound, the Ki at ROCK2 and on ROCK1 was at most 3 nM each time.
For the compound `Nc1nccc(-c2cnc(NCc3cccc(C(=O)N[C@H]4C[C@@H](F)C4)c3)c3c2OCC3)n1` [Example 48, 3-(((7-(2-Aminopyrimidin-4-yl)-2,3-dihydrofuro[3,2-c]pyridin-4-yl)amino)methyl)-N-((1S,3S)-3-fluorocyclobutyl)benzamide], at PKA, the “Ratio (PKA/ROCK2)” value is “** (5≤ratio<10)”. The inhibition constant (Ki) at ROCK2 and at ROCK1 was at most 3 nM in each case.
Regarding `Nc1nccc(-c2cnc(NCc3cccc(C(=O)N[C@H]4C[C@H](F)C4)c3)c3c2OCC3)n1` [Example 49, 3-(((7-(2-Aminopyrimidin-4-yl)-2,3-dihydrofuro[3,2-c]pyridin-4-yl)amino)methyl)-N-((1r,3r)-3-fluorocyclobutyl)benzamide], the “Ratio (PKA/ROCK2)” value at PKA is listed as “*** (ratio≥10)”. In addition, the Ki on ROCK2 and at ROCK1 was at most 3 nM in each case.
In the case of `Nc1nccc(-c2cnc(NCc3cccc(C(=O)NCCC(F)F)c3)c3c2OCC3)n1` [Example 50, 3-(((7-(2-Aminopyrimidin-4-yl)-2,3-dihydrofuro[3,2-c]pyridin-4-yl)amino)methyl)-N-(3,3-difluoropropyl)benzamide], the “Ratio (PKA/ROCK2)” value on PKA is listed as “*** (ratio≥10)”. Besides, the inhibitory constant (Ki) at ROCK2 and on ROCK1 was at most 3 nM throughout.
For `CNC(=O)c1cccc(CNc2ncc(-c3ccnc(N)n3)c3c2CCO3)c1F` [Example 54, 3-(((7-(2-Aminopyrimidin-4-yl)-2,3-dihydrofuro[3,2-c]pyridin-4-yl)amino)methyl)-2-fluoro-N-methylbenzamide], at PKA, the “Ratio (PKA/ROCK2)” value is on record as “*** (ratio≥10)”. Also, the Ki is 3 to 30 nM at ROCK2 and over 30 nM on ROCK1.
With `COCCCNC(=O)c1cccc(CNc2ncc(-c3ccnc(N)n3)c3c2CCO3)c1F` [Example 55, 3-(((7-(2-Aminopyrimidin-4-yl)-2,3-dihydrofuro[3,2-c]pyridin-4-yl)amino)methyl)-2-fluoro-N-(3-methoxypropyl)benzamide], at PKA, the “Ratio (PKA/ROCK2)” value is “*** (ratio≥10)”. Further, the values for the inhibition constant (Ki) at ROCK2 and on ROCK1 were at most 3 nM and 3 to 30 nM, respectively.
In the same order, the values of `Nc1nccc(-c2cnc(NCc3cccc(C(=O)NC4CCOCC4)c3F)c3c2OCC3)n1` [Example 56, 3-(((7-(2-Aminopyrimidin-4-yl)-2,3-dihydrofuro[3,2-c]pyridin-4-yl)amino)methyl)-2-fluoro-N-(tetrahydro-2H-pyran-4-yl)benzamide] are “*** (ratio≥10)”, 3 to 30 nM and 3 to 30 nM.
In the same order, the values of `COCCCNC(=O)c1cc(CNc2ncc(-c3ccnc(N)n3)c3c2CCO3)ccc1F` [Example 57, 5-(((7-(2-Aminopyrimidin-4-yl)-2,3-dihydrofuro[3,2-c]pyridin-4-yl)amino)methyl)-2-fluoro-N-(3-methoxypropyl)benzamide] are “*** (ratio≥10)”, at most 3 nM and 3 to 30 nM.
